Assay results as given in patent publication US20260199483A1 (Bright Angel Therapeutics Inc., priority 2022, published 2026).
Values after ≈ are worked out from the molar mass of the structure shown.

Legend:
CaCi2 = test: Antifungal sensitivity testing (broth microdilution MIC); format: cell-based; settings: CaCi2, 96-well broth microdilution, compounds in DMSO
Description: Minimum inhibitory concentrations (MICs) were determined in flat bottom, 96-well plate format using a modified broth microdilution protocol as previously described (Singh et al., PLoS Pathog. 5, e1000532 (2009); LaFayette et al., PLoS Pathog. 6, 79-80 (2010)). Compounds were formulated in dimethyl sulfoxide (DMSO, Sigma-Aldrich Co.). Each compound was tested in duplicate in at least two independent experiments.

[1] = Mammalian cell toxicity (Cell Titer-Glo); format: cell-based; settings: human; HepG2 cells, 48 h incubation, Cell Titer-Glo luminescence
Description: HepG2 cells were seeded overnight at 500 cells/well in 384-well plate, then incubated with compounds (10-point concentration titration) for 48 h. Cell Titer-Glo® reagent ([…]) was added to each well and after 10-minute incubation at room temperature the luminescent signal was measured using an Envision plate reader (Perkin Elmer).

[2] = target: T1, purified recombinant Yck2 (Candida albicans, UniProt A0A1D8PKB4); test: HotSpot kinase assay; format: biochemical, C. albicans
T1 construct: Yck2 residues 37-345 were PCR amplified from C. albicans genomic DNA; His6 (N); TEV protease site (N); made in house; host or cells: E. coli BL21(DE3)-Gold
Description: IC50s were determined using the in vitro HotSpot kinase assay (purified enzymes, ^33P-ATP, an appropriate substrate and 1 μM ATP). For enzyme inhibition assays, compounds were tested in range of ten concentrations from 10 uM to 0.0005 uM using purified recombinant Yck2. Reaction conditions were 1 uM ATP, one hour incubation with inhibitor, and kinase activity detected using 33-ATP phosphorylation of an appropriately selected peptide substrate.
Yck2 residues 37-345 were PCR amplified from C. albicans genomic DNA and subcloned into the vector pMCSG53, which codes for a N-terminal His6 tag, TEV protease site, followed by the Yck2 protein. E. coli BL21(DE3)-Gold competent cells were transformed with this plasmid and the Yck2 protein was purified using methodology previously described (Stogios et al., ACS Chem. Biol. 13, 1322-1332 (2018)).

T1 sequence (A0A1D8PKB4 entry or part of it): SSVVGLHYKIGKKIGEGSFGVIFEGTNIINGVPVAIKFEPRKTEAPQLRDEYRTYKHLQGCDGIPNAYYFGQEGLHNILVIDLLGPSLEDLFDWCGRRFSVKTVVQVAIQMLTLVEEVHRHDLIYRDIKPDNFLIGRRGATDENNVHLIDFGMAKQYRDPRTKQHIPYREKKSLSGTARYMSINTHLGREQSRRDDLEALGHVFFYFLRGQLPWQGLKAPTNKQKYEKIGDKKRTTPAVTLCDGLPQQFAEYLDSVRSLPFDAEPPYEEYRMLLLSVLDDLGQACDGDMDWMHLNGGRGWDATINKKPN

Fc1ccc(-c2nn3cc(CNC[C@H]4CO[C@@](Cn5cncn5)(c5ccc(F)cc5F)C4)ccc3c2-c2ccncc2)cc1 (stereo in doubt) [Compound I-257, 1-(cis-5-((1H-1,2,4-triazol-1-yl)methyl)-5-(2,4-difluorophenyl)tetrahydrofuran-3-yl)-N-((2-(4-fluorophenyl)-3-(pyridin-4-yl)pyrazolo[1,5-a]pyridin-6-yl)methyl)methanamine]
MIC50 (CaCi2): 0.295 µM (≈ 0.176 µg/mL)
IC50 at 48 h [1]: 5.57 µM

Nc1nccc(-c2c(-c3ccc(F)cc3)ncn2C2CCN(CCCNCC(O)(Cn3cncn3)c3ccc(F)cc3F)CC2)n1 (stereo not drawn) [Compound I-80, 1-((3-(4-(5-(2-aminopyrimidin-4-yl)-4-(4-fluorophenyl)-1H-imidazol-1-yl)piperidin-1-yl)propyl)amino)-2-(2,4-difluorophenyl)-3-(1H-1,2,4-triazol-1-yl)propan-2-ol]
IC50 at 48 h [1]: > 20 µM
IC50 [2]: 3.33 nM

O=C(NC1CCN(C[C@](O)(Cn2cncn2)c2ccc(F)cc2F)CC1)c1ccc2c(-c3ccncc3)c(-c3ccc(F)cc3)nn2c1 [Compound I-102, (S)-N-(1-(2-(2,4-difluorophenyl)-2-hydroxy-3-(1H-1,2,4-triazol-1-yl)propyl)piperidin-4-yl)-2-(4-fluorophenyl)-3-(pyridin-4-yl)pyrazolo[1,5-a]pyridine-6-carboxamide]
MIC50 (CaCi2): 3.12 µM (≈ 2.04 µg/mL)
IC50 at 48 h [1]: 2.24 µM
IC50 [2]: 46.6 nM

O=C(NC1CCN(C[C@@](O)(Cn2cncn2)c2ccc(F)cc2F)CC1)c1ccc2c(-c3ccncc3)c(-c3ccc(F)cc3)nn2c1 [Compound I-103, (R)-N-(1-(2-(2,4-difluorophenyl)-2-hydroxy-3-(1H-1,2,4-triazol-1-yl)propyl)piperidin-4-yl)-2-(4-fluorophenyl)-3-(pyridin-4-yl)pyrazolo[1,5-a]pyridine-6-carboxamide]
MIC50 (CaCi2): 0.0488 µM (≈ 0.0319 µg/mL)
IC50 at 48 h [1]: 6.38 µM
IC50 [2]: 49.5 nM

O=C(NCC(O)(Cn1cncn1)c1ccc(F)cc1F)c1ccc2c(-c3ccncc3)c(-c3ccc(F)cc3)nn2c1 (stereo not drawn) [Compound I-115, N-(2-(2,4-difluorophenyl)-2-hydroxy-3-(1H-1,2,4-triazol-1-yl)propyl)-2-(4-fluorophenyl)-3-(pyridin-4-yl)pyrazolo[1,5-a]pyridine-6-carboxamide]
MIC50 (CaCi2): 1.27 µM (≈ 0.723 µg/mL)
IC50 at 48 h [1]: > 20 µM
IC50 [2]: 3.67 nM

OC(CNCCOc1cccc2c(-c3ccncc3)c(-c3ccc(F)cc3)nn12)(Cn1cncn1)c1ccc(F)cc1F (stereo not drawn) [Compound I-153, 2-(2,4-difluorophenyl)-1-((2-((2-(4-fluorophenyl)-3-(pyridin-4-yl)pyrazolo[1,5-a]pyridin-7-yl)oxy)ethyl)amino)-3-(1H-1,2,4-triazol-1-yl)propan-2-ol]
MIC50 (CaCi2): 1.56 µM (≈ 0.914 µg/mL)
IC50 at 48 h [1]: > 20 µM
IC50 [2]: 48.7 nM

O=C(NC1CCN(CC(O)(Cn2cncn2)c2ccc(F)cc2F)CC1)c1cccc2c(-c3ccncc3)c(-c3ccc(F)cc3)nn12 (stereo not drawn) [Compound I-155, N-(1-(2-(2,4-difluorophenyl)-2-hydroxy-3-(1H-1,2,4-triazol-1-yl)propyl)piperidin-4-yl)-2-(4-fluorophenyl)-3-(pyridin-4-yl)pyrazolo[1,5-a]pyridine-7-carboxamide]
MIC50 (CaCi2): 0.781 µM (≈ 0.51 µg/mL)
IC50 at 48 h [1]: 10.1 µM

CC(C)(C)OC(=O)N1CCc2c(n(CCCN3CCC(n4cnc(-c5ccc(F)cc5)c4-c4ccnc(N)n4)CC3)c3ccc(Cl)cc23)C1 [Compound I-229, tert-butyl 9-(3-(4-(5-(2-aminopyrimidin-4-yl)-4-(4-fluorophenyl)-1H-imidazol-1-yl)piperidin-1-yl)propyl)-6-chloro-1,3,4,9-tetrahydro-2H-pyrido[3,4-b]indole-2-carboxylate]
IC50 at 48 h [1]: 5.59 µM
IC50 [2]: 16.4 nM

Nc1nccc(-c2c(-c3ccc(F)cc3)ncn2C2CCN(CCCn3c4c(c5cccc(Cl)c53)CCNC4)CC2)n1 [Compound I-231, 4-(1-(1-(3-(8-chloro-1,2,3,4-tetrahydro-9H-pyrido[3,4-b]indol-9-yl)propyl)piperidin-4-yl)-4-(4-fluorophenyl)-1H-imidazol-5-yl)pyrimidin-2-amine]
MIC50 (CaCi2): > 25 µM
IC50 at 48 h [1]: 1.84 µM
IC50 [2]: 4.13 nM

Cn1cc(-c2ccncc2COC(=O)C2CCN(CC(O)(Cn3cncn3)c3ccc(F)cc3F)CC2)c(-c2ccc(F)cc2)n1 (stereo not drawn) [Compound I-239, (4-(3-(4-fluorophenyl)-1-methyl-1H-pyrazol-4-yl)pyridin-3-yl)methyl 1-(2-(2,4-difluorophenyl)-2-hydroxy-3-(1H-1,2,4-triazol-1-yl)propyl)piperidine-4-carboxylate]
MIC50 (CaCi2): 0.195 µM (≈ 0.123 µg/mL)
IC50 at 48 h [1]: > 20 µM
IC50 [2]: 185 nM

Cn1cc(-c2ccnc3c2C(=O)N(C2CCN(CC(O)(Cn4cncn4)c4ccc(F)cc4F)CC2)C3)c(-c2ccc(F)cc2)n1 (stereo not drawn) [Compound I-242, 6-(1-(2-(2,4-difluorophenyl)-2-hydroxy-3-(1H-1,2,4-triazol-1-yl)propyl)piperidin-4-yl)-4-(3-(4-fluorophenyl)-1-methyl-1H-pyrazol-4-yl)-6,7-dihydro-5H-pyrrolo[3,4-b]pyridin-5-one]
IC50 at 48 h [1]: > 20 µM
IC50 [2]: 15.3 nM

O=C(CC(O)(Cn1cncn1)c1ccc(F)cc1F)NCc1ccc2c(-c3ccncc3)c(-c3ccc(F)cc3)nn2c1 (stereo not drawn) [Compound I-255, 3-(2,4-difluorophenyl)-N-((2-(4-fluorophenyl)-3-(pyridin-4-yl)pyrazolo[1,5-a]pyridin-6-yl)methyl)-3-hydroxy-4-(1H-1,2,4-triazol-1-yl)butanamide]
MIC50 (CaCi2): 1.56 µM (≈ 0.91 µg/mL)
IC50 at 48 h [1]: 22.5 µM

C[C@@H](NCc1ccc2c(-c3ccncc3)c(-c3ccc(F)cc3)nn2c1)[C@](O)(Cn1cncn1)c1ccc(F)cc1F [Compound I-266, (2R,3R)-2-(2,4-difluorophenyl)-3-(((2-(4-fluorophenyl)-3-(pyridin-4-yl)pyrazolo[1,5-a]pyridin-6-yl)methyl)amino)-1-(1H-1,2,4-triazol-1-yl)butan-2-ol]
MIC50 (CaCi2): 0.195 µM (≈ 0.111 µg/mL)
IC50 at 48 h [1]: 19.5 µM

OC(Cn1cncn1)(c1ccc(F)cc1F)C(F)(F)c1ccc(C#Cc2ccc(NCc3ccc4c(-c5ccncc5)c(-c5ccc(F)cc5)nn4c3)cc2)cn1 (stereo not drawn) [Compound I-268]
MIC50 (CaCi2): 1.17 µM (≈ 0.899 µg/mL)
IC50 at 48 h [1]: > 50 µM

OC(Cn1cncn1)(c1ccc(F)cc1F)C(F)(F)c1ccc(C#Cc2ccc(OCCNCc3ccc4c(-c5ccncc5)c(-c5ccc(F)cc5)nn4c3)cc2)cn1 (stereo not drawn) [Compound I-270]
MIC50 (CaCi2): 0.586 µM (≈ 0.476 µg/mL)
IC50 at 48 h [1]: 1.54 µM
